Laboratory results reported in KR20210050472A, “에독사반염 및 이를 포함하는 약제학적 조성물” (priority 2019, dated 2021).
Like-named read-outs stand apart in the source and are kept apart here.

Columns and labels:
[1] = Heat stability test (Test Example 1), crystal form retention at 40±2℃, 75±5% RH; assay type: physicochemical; conditions: for stability of crystal form: 40℃/75% RH
[2] = Stability test in pH solutions (Test Example 2), related substances by HPLC; assay type: physicochemical; conditions: for degraded: read-out: amount of related substances generated
[3] = 40℃, 75% RH, from week 8 of the stability test

## CN1CCc2nc(C(=O)N[C@@H]3C[C@@H](C(=O)N(C)C)CC[C@@H]3NC(=O)C(=O)Nc3ccc(Cl)cn3)sc2C1 [말산염 결정형, 에독사반 말산염 결정형, reference compound]
[1]; 40℃, 75% RH, week 24
  change in appearance and powder X-ray diffraction values: 성상 변화 및 분말 X선 회절 값이 변화
[1]; 8 weeks, 말산염
  stability of crystal form: 결정형 유지
[1]; 24 weeks, 말산염
  stability of crystal form: 결정형 변화

## CN1CCc2nc(C(=O)N[C@@H]3C[C@@H](C(=O)N(C)C)CC[C@@H]3NC(=O)C(=O)Nc3ccc(Cl)cn3)sc2C1 [벤젠술폰산염 결정형 Ⅰ형, 에독사반 벤젠술폰산염 결정형 Ⅰ형]
[1]; 8 weeks, 벤젠술폰산염
  stability of crystal form: 결정형 유지
[1]; 16 weeks
  stability of crystal form: 결정형 유지
[1]; 24 weeks, 벤젠술폰산염
  stability of crystal form: 결정형 유지

## CN1CCc2nc(C(=O)N[C@@H]3C[C@@H](C(=O)N(C)C)CC[C@@H]3NC(=O)C(=O)Nc3ccc(Cl)cn3)sc2C1 [벤젠술폰산염 결정형 Ⅱ형, 에독사반 벤젠술폰산염 결정형 Ⅱ형, reference compound]
[1]; [3]
  change of crystal form: 일부가 결정형 Ⅰ으로 변화
  change of endothermic point by differential scanning calorimetry: 결정형 Ⅰ형의 흡열점이 관찰
[1]; 8 weeks, 벤젠술폰산염
  stability of crystal form: 일부 결정형 Ⅰ형으로 변화

## CN1CCc2nc(C(=O)N[C@@H]3C[C@@H](C(=O)N(C)C)CC[C@@H]3NC(=O)C(=O)Nc3ccc(Cl)cn3)sc2C1 [에디실산염 수화물 결정형, 에독사반 에디실산염 수화물 결정형]
[1]; 40℃, 75% RH, over 24 weeks
  change in crystal form and appearance: 결정형의 변화 및 성상의 변화가 발생하지 않아
[1]; 8 weeks, 에디실산염 수화물
  stability of crystal form: 결정형 유지
[1]; 16 weeks
  stability of crystal form: 결정형 유지
[1]; 24 weeks, 에디실산염 수화물
  stability of crystal form: 결정형 유지
[2]; distilled water (DW)
  degraded: 0.18%
[2]; pH 1.2
  degraded: 19.3%
[2]; pH 7.8
  degraded: 11.4%
[2]; pH 7.8 solution
  total related substances generated, reduction versus tosylate hydrate: ~4.5%
[2]; solutions of DW, pH 1.2 and pH 7.8
  total related substances generated, compared with tosylate hydrate: 총유연물질이 적게 발생
